Data reported in US20090163476A1, “N-Phenyl Benzamide Derivatives as Sirtuin Modulators” (Sirtris Pharmaceuticals, Inc., priority 2005, published 2009).

Tests used:
Format in all cases: biochemical
[1] = target: T1, SIRT1 (Homo sapiens, UniProt Q96EB6); assay: Fluorescence polarization assay of SIRT1 activity (p53-based peptide substrate); conditions: activation of SIRT1; peptide 1 for Compounds 1-18, peptide 2 for Compounds 19-164; read-out: ED50 FP
T1 sequence (Q96EB6 1-747): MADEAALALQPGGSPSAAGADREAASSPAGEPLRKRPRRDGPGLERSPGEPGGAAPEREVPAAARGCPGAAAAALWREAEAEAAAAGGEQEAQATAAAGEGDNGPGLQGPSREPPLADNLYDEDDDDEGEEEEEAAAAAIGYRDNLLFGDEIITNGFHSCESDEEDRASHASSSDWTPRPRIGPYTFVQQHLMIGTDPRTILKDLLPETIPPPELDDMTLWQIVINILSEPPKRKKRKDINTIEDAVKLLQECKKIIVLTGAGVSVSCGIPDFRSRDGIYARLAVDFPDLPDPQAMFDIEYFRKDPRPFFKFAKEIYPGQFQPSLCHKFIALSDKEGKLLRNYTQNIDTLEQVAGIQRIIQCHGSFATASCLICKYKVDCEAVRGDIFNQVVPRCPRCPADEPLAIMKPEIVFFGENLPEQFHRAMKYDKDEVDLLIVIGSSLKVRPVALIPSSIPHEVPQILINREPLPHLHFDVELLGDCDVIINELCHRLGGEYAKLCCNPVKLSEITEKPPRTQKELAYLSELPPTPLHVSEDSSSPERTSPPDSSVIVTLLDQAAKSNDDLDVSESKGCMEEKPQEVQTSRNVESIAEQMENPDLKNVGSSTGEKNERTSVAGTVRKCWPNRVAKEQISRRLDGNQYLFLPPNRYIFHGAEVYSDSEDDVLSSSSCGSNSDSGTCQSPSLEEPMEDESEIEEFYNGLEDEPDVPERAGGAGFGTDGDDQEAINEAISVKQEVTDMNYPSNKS
Method: A fluorescence polarization or mass spectrometry based assay was used to identify modulators of SIRT1 activity. The same assay may be used to identify modulators of any sirtuin protein. The fluorescence polarization assays utilizes one of two different peptides based on a fragment of p53, a known sirtuin deacetylation target. Compounds 1-18 were tested using a substrate containing peptide 1 having 20 amino acid residues as follows: Ac-EE-K(biotin)-[…](Ac)NleSTEG-K(M121)-EE-NH2 (SEQ ID NO: 1) wherein K(biotin) is a biotinolated lysine residue, K(Ac) is an acetylated lysine residue, Nle is norleucine and K(MR121) is a lysine residue modified by an MR121 fluorophore. This peptide is labeled with the fluorophore MR121 (excitation 635 nm/emission 680 nm) at the C-termini and biotin at the N-termini. The sequence of the peptide substrates are based on p53 with several modifications. In particular, all arginine and […] residues other than the acetylated lysine residues have replaced with serine so that the peptides are not susceptible to trypsin cleavage in the absence of deacetylation. In addition, the methionine residues naturally present in the sequences have been replaced with the norleucine because the methionine may be susceptible to oxidation during synthesis and purification. […] The peptide is labeled with the fluorophore 5TMR (excitation 540 nm/emission 580 nm) at the C-terminus. The sequence of the peptide substrate is also based on p53 with several modifications. In addition, the methionine residue naturally present in the sequence was replaced with the norleucine because the methionine may be susceptible to oxidation during synthesis and purification.
The peptide substrates were exposed to a sirtuin protein in the presence of NAD^+ to allow deacetylation of the substrate and render it sensitive to cleavage by trypsin. Trypsin was then added and the reaction was carried to completion (i.e., the deacetylated substrate is cleaved) releasing the MR121 or 5TMR fragment. Streptavidin is then added to the reaction where it can bind both the uncleaved substrate (i.e., any remaining acetylated substrate) and the non-fluorescent portion of the cleaved peptide substrate (i.e., the biotin containing fragment). The fluorescence polarization signal observed for the full length peptide substrates bound to streptavidin was higher than the fluorescence polarization signal observed for the released MR121 or 5TMR C-terminal fragment. In this way, the fluorescence polarization obtained is inversely proportional to the level of deacetylation (e.g., the signal is inversely proportional to the activity of the sirtuin protein). Results were read on a microplate fluorescence polarization reader (Molecular Devices Spectramax MD) with appropriate excitation and emission filters.
The fluorescence polarization assays using peptide 1 is conducted as follows: 0.5 μM peptide substrate and 150 μM βNAD^+ is incubated with 0.1 μg/mL of SIRT1 for 60 minutes at 37° C. in a reaction buffer (25 mM Tris-acetate pH8, 137 mM Na—Ac, 2.7 mM K—Ac, 1 mM Mg—Ac, 0.05% Tween-20, 0.1% Pluronic F127, 10 mM CaCl2, 5 mM DTT, 0.025% BSA, 0.15 mM Nicotinamide). Test compounds 1-18 were solubilized in DMSO and added to the reaction at 11 concentrations ranging from 0.7 μM to 100 μM.
Fluorescence polarization assays using peptide 2 is conducted as follows: 0.5 μM peptide substrate and 120 μM βNAD^+ were incubated with 3 nM SIRT1 for 20 minutes at 25° C. in a reaction buffer (25 mM Tris-acetate pH8, 137 mM Na—Ac, 2.7 mM K—Ac, 1 mM Mg—Ac, 0.05% Tween-20, 0.1% Pluronic F127, 10 mM CaCl2, 5 mM DTT, 0.025% BSA). Test compounds 19-56 were solubilized in DMSO and added to the reaction at 10 concentrations ranging from 300 μM to 0.15 μM in three-fold dilutions.
After the incubation with SIRT1, nicotinamide was added to the reaction to a final concentration of 3 mM to stop the deacetylation reaction and 0.5 μg/mL of trypsin was added to cleave the deacetylated substrate. […]

[2] = target: T1, SIRT1; assay: SIRT1 fluorescence polarization or mass spectrometry based assay (format not given); conditions: inhibition of SIRT1 (Table 5)
[3] = target: T1, SIRT1; assay: Mass spectrometry based assay of SIRT1 activity; parameters: key to FOLD ACTIVATION MS: A: Fold activation >250%; B: Fold Activation <250%; C: no fold activation; conditions: for EC50: activation of SIRT1, read-out: ED50 MS
Method: The mass spectrometry based assay utilizes a peptide having 20 amino acid residues as follows: […] The sequence of the peptide substrate is based on p53 with several modifications. […] Test compounds may be added to the reaction as described above. […] After the 25 minute incubation with SIRT1, 10 μL of 10% formic acid is added to stop the reaction. Reactions are sealed and frozen for later mass spec analysis. Determination of the mass of the substrate peptide allows for precise determination of the degree of acetylation (i.e. starting material) as compared to deacetylated peptide (product). […] This timepoint is the same as that used for test compounds and, within the linear range, the endpoint represents a change in velocity. For each of the above assays, SIRT1 protein was expressed and purified as follows. The SirT1 gene was cloned into a T7-promoter containing vector and transformed into BL21(DE3). The protein was expressed by induction with 1 mM IPTG as an N-terminal His-tag fusion protein at 18° C. overnight and harvested at 30,000×g. […] The protein was purified over a Ni-NTA column (Amersham) and fractions containing pure protein were pooled, concentrated and run over a sizing column (Sephadex S200 26/60 global). The peak containing soluble protein was collected and run on an Ion-exchange column (MonoQ). […] This protein was concentrated and dialyzed against dialysis buffer (20 mM Tris-HCl, 2 mM TCEP) overnight. The protein was aliquoted and frozen at −80° C. until further use.

| SMILES | EC50 [1] [µM] | IC50 [2] [µM] | FOLD ACTIVATION MS [3] | EC50 [3] [µM] |
| --- | --- | --- | --- | --- |
| O=C(Nc1ccccc1C(=O)O)c1cccc(C(=O)Nc2ccccc2C(=O)O)c1 [Compound 3] | 51 to 100 | – | – | – |
| COc1cc(C(=O)Nc2cc(Cl)ccc2C(=O)O)ccc1OC(C)=O [Compound 10] | > 150 | – | – | – |
| O=C(O)c1ccc(NC(=O)c2cccc(NC(=O)c3cccs3)c2)cc1 [Compound 13] | – | < 50 | – | – |
| CC(=O)Oc1ccc(C(=O)Nc2ccc(C(=O)O)cc2NC(=O)c2ccc(OC(C)=O)cc2)cc1 [Compound 14] | – | 51 to 100 | – | – |
| O=C(Nc1cccc(-c2nc3ncccc3o2)c1)c1ccc(N2CCOCC2)cc1 [Compound 38] | > 150 | – | C | > 150 |
| O=C(Nc1cccc(-c2nc3ncccc3o2)c1)c1ccc(N2CCCCC2)cc1 [Compound 39] | > 150 | – | C | > 150 |
| COc1ccc(C(=O)Nc2cccc(-c3nc4ncccc4o3)c2)c(C(F)(F)F)c1 [Compound 40] | > 150 | – | C | > 150 |
| COc1ccc(C(=O)Nc2cccc(-c3nc4ncccc4o3)c2)cc1C(F)(F)F [Compound 41] | > 150 | – | C | > 150 |
| N#Cc1cccc(C(=O)Nc2cccc(-c3nc4ncccc4o3)c2)c1 [Compound 44] | – | > 150 | – | – |
| N#Cc1ccc(C(=O)Nc2cccc(-c3nc4ncccc4o3)c2)cc1 [Compound 45] | > 150 | – | C | > 150 |
| COc1cccc(OC)c1C(=O)Nc1cccc(-c2nc3ncccc3o2)c1 [Compound 46] | > 150 | – | C | > 150 |
| O=C(Nc1cccc(-c2nc3ncccc3o2)c1)c1ccc(N2CCCC2)cc1 [Compound 47] | – | 51 to 100 | – | – |
| COc1cc(OC)c(C(=O)Nc2cccc(-c3nc4ncccc4o3)c2)c(OC)c1 [Compound 48] | > 150 | – | C | > 150 |
| COc1cccc(C(=O)Nc2cccc(-c3nc4ncccc4o3)c2)c1C [Compound 49] | > 150 | – | B (Fold Activation <250%) | < 50 |
| COc1ccc(C(=O)Nc2cccc(-c3nc4ncccc4o3)c2)c(OC)c1OC [Compound 53] | > 150 | – | C | > 150 |
| O=C(Nc1cccc(-c2nc3ncccc3o2)c1)c1ccccc1 [Compound 56] | > 150 | – | B (Fold Activation <250%) | < 50 |

The next lines start with the values.

| EC50 [1] [µM] | IC50 [2] [µM] | FOLD ACTIVATION MS [3] | EC50 [3] [µM] | SMILES |
| --- | --- | --- | --- | --- |
| < 50 | – | – | – | CC(=O)Oc1cc(C(=O)Nc2ccccc2C(=O)O)cc(C(=O)Nc2ccccc2C(=O)O)c1 [Compound 1] |
| > 150 | – | – | – | O=C(Nc1cc(NC(=O)c2ccccc2)c(C(=O)O)cc1C(=O)O)c1ccccc1 [Compound 2] |
| 51 to 100 | – | – | – | COc1cc(NC(=O)c2cccc(Br)c2)c(C(=O)O)cc1OC [Compound 5] |
| > 150 | – | – | – | COc1ccccc1C(=O)Nc1cccc(NC(=O)c2ccco2)c1 [Compound 6] |
| < 50 | – | – | – | COc1ccccc1C(=O)Nc1cccc(-c2nc3ncccc3o2)c1 [Compound 7] |
| 51 to 100 | – | – | – | CCOc1cccc(C(=O)Nc2cc(OC)c(OC)cc2C(=O)O)c1 [Compound 8] |
| 101 to 150 | – | – | – | CC1COCC(C)N1c1ccc(C(=O)NCc2cccc(CN)c2)cc1NC(=O)c1ccc2ccccc2c1 (stereo not shown) [Compound 9] |
| < 50 | – | B (Fold Activation <250%) | < 50 | CN(C)c1cccc(C(=O)Nc2cccc(-c3nc4ncccc4o3)c2)c1 [Compound 42] |
| < 50 | – | B (Fold Activation <250%) | < 50 | CN(C)c1ccc(C(=O)Nc2cccc(-c3nc4ncccc4o3)c2)cc1 [Compound 43] |
| < 50 | – | B (Fold Activation <250%) | < 50 | COc1cc(C)ccc1C(=O)Nc1cccc(-c2nc3ncccc3o2)c1 [Compound 51] |
| < 50 | – | B (Fold Activation <250%) | < 50 | COc1ccc(C(=O)Nc2cccc(-c3nc4ncccc4o3)c2)cc1OC [Compound 52] |
| < 50 | – | B (Fold Activation <250%) | < 50 | COc1ccc(C(=O)Nc2cccc(-c3nc4ncccc4o3)c2)c(OC)c1 [Compound 55] |
